Legend:
[1] = target: T1, human α1d adrenergic receptor (Homo sapiens, UniProt P25100); experiment: Radioligand binding ([3H]prazosin) at cloned human α1d adrenergic receptor; settings: LM(tk-) cell membranes, read-out: Binding affinities (pKi) α1d (converted)
T1 construct: The entire coding region. of α1d (1719 bp); expressed in transfected cells
T1 sequence (P25100 1-572): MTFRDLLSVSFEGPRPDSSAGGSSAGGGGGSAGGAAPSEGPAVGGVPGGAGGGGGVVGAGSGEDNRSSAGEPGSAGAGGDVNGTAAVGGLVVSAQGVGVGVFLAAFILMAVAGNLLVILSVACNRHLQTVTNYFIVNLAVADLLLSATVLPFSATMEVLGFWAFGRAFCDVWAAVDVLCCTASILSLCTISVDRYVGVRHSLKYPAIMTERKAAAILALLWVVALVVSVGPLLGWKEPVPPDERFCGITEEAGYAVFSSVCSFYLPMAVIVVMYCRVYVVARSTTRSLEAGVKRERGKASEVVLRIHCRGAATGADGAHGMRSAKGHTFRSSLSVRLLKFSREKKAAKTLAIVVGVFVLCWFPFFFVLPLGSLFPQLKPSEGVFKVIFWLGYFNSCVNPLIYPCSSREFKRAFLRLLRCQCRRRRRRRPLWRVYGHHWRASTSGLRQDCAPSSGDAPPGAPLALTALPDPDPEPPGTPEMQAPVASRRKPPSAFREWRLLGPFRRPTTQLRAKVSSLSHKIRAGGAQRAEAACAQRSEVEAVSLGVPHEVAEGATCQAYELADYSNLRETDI
Protocol: (§1) First, conditions were determined which allowed measurement of the specific binding of a compound known to bind to the receptor. Then, the binding of the known compound to the receptor in membrane preparations was evaluated in the presence of several different concentrations of the test compound.
(§2) These cell lines were prepared by transfecting the cloned cDNA or cloned genomic DNA or constructs containing both genomic DNA and cDNA encoding the human receptors as described below.
α1d Human Adrenergic Receptor: The entire coding region. of α1d (1719 bp), including 150 base pairs of 5′ untranslated sequence (5′ UT) and 300 bp of 3′ untranslated sequence (3′ UT), was cloned into the BamHI and ClaI sites of the polylinker-modified eukaryotic expression vector pCEXV-3, called EXJ.HR. The construct involved the ligation of partial overlapping human lymphocyte genomic and hippocampal cDNA clones: 5′ sequence were contained on a 1.2 kb SmaI-XhoI genomic fragment (the vector-derived BamHI site was used for subcloning instead of the internal insert-derived SmaI site) and 3′ sequences were contained on a 1.3 kb XhoI-ClaI cDNA fragment (the ClaI site was from the vector polylinker). Stable cell lines were obtained by cotransfection with the plasmid α1A/EXJ (expression vector containing the α1a receptor gene (old nomenclature)) and the plasmid pGCcos3neo (plasmid containing the aminoglycoside transferase gene) into LM(tk-) cells using the calcium phosphate technique. The cells were grown, in a controlled environment (37° C., 5% CO2), as monolayers in Dulbecco's modified Eagle's Medium (GIBCO, Grand Island, N.Y.) containing 25 mM glucose and supplemented with 10% bovine calf serum, 100 units/ml penicillin g, and 100 μg/ml streptomycin sulfate. Stable clones were then selected for resistance to the antibiotic G-418 (1 mg/ml), and membranes were harvested and assayed for their ability to bind [^3H]prazosin as described below (see Radioligand Binding assays).
The cell line expressing the human α1d receptor used herein was designated L-α1A (old nomenclature) and was deposited with the American Type Culture Collection, 12301 Parklawn Drive, Rockville, Md. 20852, U.S.A. under the provisions of the Budapest Treaty for the International Recognition of the Deposit of Microorganisms for the Purposes of Patent Procedure. The cell line expressing the human α1d receptor, was accorded ATCC Accession No. CRL 11138, and was deposited on Sep. 25, 1992.
Radioligand Binding Assays for α1 Human Adrenergic Receptors: Transfected cells from culture flasks were scraped into 5 ml of 5 mM Tris-HCl, 5 mM EDTA, pH 7.5, and lysed by sonication. The cell lysates were centrifuged at 1000 rpm for 5 min at 4° C., and the supernatant was centrifuged at 30,000×g for 20 min at 4° C. The pellet was suspended in 50 mM Tris-HCl, 1 mM MgCl2, and 0.1% ascorbic acid at pH 7.5. Binding of the α1, antagonist [^3H]prazosin (0.5 nM, specific activity 76.2 Ci/mmol) to membrane preparations of LM(tk-) cells was done in a final volume of 0.25 ml and incubated at 37° C. for 1 hour. Nonspecific binding was determined in the presence of 10 μM phentolamine. The reaction was stopped by filtration through GF/B filters using a cell harvester.

[2] = target: T2, human 5-HT1a receptor (Homo sapiens, UniProt P08908); experiment: Competition binding ([3H]-8-OH-DPAT) at cloned human 5-HT1a receptor; settings: COS-7 cell membranes, read-out: Binding affinities (pKi) 5-HT1a (converted)
T2 construct: receptor open reading frames and variable non-coding 5′- and 3′-regions, was cloned into the eukaryotic expression vector pCEXV-3; expressed in transfected cells; host or cells: COS-7 cells, transient (DEAE-dextran); a deposited line 5-HT1A-3 (ATCC CRL 11889) is also named
T2 sequence (P08908 1-422): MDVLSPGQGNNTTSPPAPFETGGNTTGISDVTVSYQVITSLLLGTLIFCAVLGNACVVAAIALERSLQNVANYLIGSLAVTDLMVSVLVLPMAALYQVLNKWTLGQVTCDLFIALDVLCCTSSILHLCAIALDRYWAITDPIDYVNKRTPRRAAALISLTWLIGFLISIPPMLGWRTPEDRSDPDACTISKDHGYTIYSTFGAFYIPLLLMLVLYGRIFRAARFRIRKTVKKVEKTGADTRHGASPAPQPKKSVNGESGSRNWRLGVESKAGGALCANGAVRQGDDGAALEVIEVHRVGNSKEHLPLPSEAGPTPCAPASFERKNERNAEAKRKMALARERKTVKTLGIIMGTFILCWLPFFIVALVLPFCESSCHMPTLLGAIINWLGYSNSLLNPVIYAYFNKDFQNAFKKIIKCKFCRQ
Protocol: as §1, §2
The cDNA corresponding to the ^5-HT1a receptor open reading frames and variable non-coding 5′- and 3′-regions, was cloned into the eukaryotic expression vector pCEXV-3. These constructs were transfected transiently into COS-7 cells by the DEAE-dextran method. Cells were harvested after 72 hours and lysed by sonication in 5 mM Tris-HCl, 5 mM EDTA, pH 7.5. The cell lysates were centrifuged at 1000 rpm for 5 minutes at 4° C., and the supernatant was centrifuged at 30,000×g for 20 minutes at 4° C. The pellet was suspended in 50 mM Tris-HCl buffer (pH 7.7 at room temperature) containing 10 mM MgSO4, 0.5 mM EDTA, and 0.1% ascorbate. The affinity of compounds at 5-HT1a receptors were determined in equilibrium competition binding assays using [^3H]-8-OH-DPAT. Nonspecific binding was defined by the addition of 10 μM mianserin. The bound radioligand was separated by filtration through GF/B filters using a cell harvester.

SMILES	Ki [1]	Ki [2]
O=C1CC2(CCCC2)CC(=O)N1CCN1CCN(c2ccc(F)c(F)c2)CC1 [Compound 15, 8-{2-[4-(3,4-Difluorophenyl)piperazin-1-yl]ethyl}-8-azaspiro[4.5]decane-7,9-dione]	7.94 nM	50.1 nM
O=C1CC2(CCCC2)CC(=O)N1CCN1CCN(c2cc(F)c(F)cc2F)CC1 [Compound 7, 8-{2-[4-(2,4,5-Trifluorophenyl)piperazin-1-yl]ethyl}-8-azaspiro[4.5]decane-7,9-dione]	2 nM	398 nM
O=C1CC2(CCCC2)CC(=O)N1CCN1CCN(c2c(F)cccc2F)CC1 [Compound 14, 8-{2-[4-(2,6-Difluorophenyl)piperazino]ethyl}-8-azaspiro[4.5]decane-7,9-dione]	3.98 nM	7.94 nM
Cc1ccc(Cl)cc1N1CCN(CCN2C(=O)CC3(CCCC3)CC2=O)CC1 [Compound 13, 8-{2-[4-(5-Chloro-2-methylphenyl)piperazino]ethyl}-8-azaspiro [4.5]decane-7,9-dione]	39.8 nM	251 nM
C[C@H](CN1CCN(c2cc(F)ccc2F)CC1)N1C(=O)CC2(CCCC2)CC1=O [Compound 8, 8-{(1R)-2-[4-(2,5-Difluorophenyl)piperazin-1-yl]-1-methylethyl}-8-azaspiro[4.5]decane-7,9-dione]	0.794 nM	50.1 nM
COc1ccc(F)cc1C1CCN(CCN2C(=O)CC3(CCCC3)CC2=O)CC1 [Compound 12, 8-{2-[4-(5-Fluoro-2-methoxyphenyl)piperidin-1-yl]ethyl}-8-azaspiro[4.5]decane-7,9-dione]	1 nM	7.94 nM
O=C1CC2(CCCC2)CC(=O)N1CCN1CCN(c2cc(F)ccc2F)CC1 [Compound 6, 8-{2-[4-(2,5-Difluorophenyl)piperazin-1-yl]ethyl}-8-azaspiro[4.5]decane-7,9-dione]	1 nM	25.1 nM
C[C@@H](CN1CCN(c2cc(F)ccc2F)CC1)N1C(=O)CC2(CCCC2)CC1=O [Compound 10, 8-{(1S)-2-[4-(2,5-Difluorophenyl)piperazin-1-yl]-1-methylethyl}-8-azaspiro[4.5]decane-7,9-dione]	50.1 nM	2510 nM

Source: patent US6706716B2, “Compounds specific for the human α1d adrenergic receptor and uses thereof” (Synaptic Pharmaceutical Corporation, priority 1998, dated 2004)
